# Patent US10314308B2, “Microbiocidal benzoxaboroles” (SYNGENTA PARTICIPATIONS AG, priority 2015, dated 2019)
# What was measured:
# [1] = test system: Plasmopara Viticola; experiment: whole plant or invertebrate; format: in vivo; conditions: foliar, read-out: disease control
# [2] = test system: Puccinia Recondita f. sp. Tritici; experiment: Puccinia recondita f. sp. tritici / wheat / leaf disc preventative (brown rust); format: in vivo; conditions: foliar, wheat leaf segments cv Kanzler, inoculated 1 day after application, assessed 7-9 days after application, read-out: disease control
# Experimental: 3 Puccinia Recondita f. sp. Tritici/Wheat/Leaf Disc Preventative (Brown Rust) Wheat leaf segments cultivated variety (cv) Kanzler were placed on agar in 24-well plates and sprayed with formulated test compound diluted in water. The leaf disks were inoculated with a spore suspension of the fungus 1 day after application. The inoculated leaf segments were incubated at 19° C. and 75% relative humidity under a light regime of 12/12 h (light/dark) in a climate cabinet and the activity of a compound was assessed as percent disease control compared to untreated when an appropriate level of disease damage appears in untreated check leaf segments (7-9 days after application).
# [3] = test system: Phaeosphaeria Nodorum (Septoria Nodorum); experiment: Phaeosphaeria nodorum (Septoria nodorum) / wheat / leaf disc preventative (glume blotch); format: in vivo; conditions: Parastagonospora nodorum, foliar, wheat leaf segments cv Kanzler, inoculated 2 days after application, assessed 5-7 days after application, read-out: disease control
# Experimental: 5 Phaeosphaeria Nodorum (Septoria Nodorum)/Wheat/Leaf Disc Preventative (Glume Blotch) Wheat leaf segments cv Kanzler were placed on agar in a 24-well plate and sprayed with formulated test compound diluted in water. The leaf disks were inoculated with a spore suspension of the fungus 2 days after application. The inoculated test leaf disks were incubated at 20° C. and 75% relative humidity under a light regime of 12/12 h (light/dark) in a climate cabinet and the activity of a compound was assessed as percent disease control compared to untreated when an appropriate level of disease damage appears in untreated check leaf disks (5-7 days after application).
# [4] = test system: Pythium Ultimum; experiment: Pythium ultimum / liquid culture (seedling damping off); format: cell-based; conditions: Globisporangium ultimum, potato dextrose broth, 24° C., 2-3 days after application, read-out: disease control (inhibition of growth, photometrically)
# [5] = test system: Botryotinia Fuckeliana(Botrytis Cinerea); experiment: Botryotinia fuckeliana (Botrytis cinerea) / liquid culture (gray mould); format: cell-based; conditions: Vogels broth, 24° C., 3-4 days after application, read-out: disease control (inhibition of growth, photometrically)
# Experimental: 9 Botryotinia Fuckeliana(Botrytis Cinerea)/Liquid Culture (Gray Mould) Conidia of the fungus from cryogenic storage were directly mixed into nutrient broth (Vogels broth). After placing a DMSO solution of test compound into a 96-well microtiter plate, the nutrient broth containing the fungal spores was added. The test plates were incubated at 24° C. and the inhibition of growth was determined photometrically 3-4 days after application.
# [6] = test system: Glomerella Lagenarium(Colletotrichum Ladenarium); experiment: Glomerella lagenarium (Colletotrichum lagenarium) / liquid culture (anthracnose); format: cell-based; conditions: PDB potato dextrose broth, 24° C., 3-4 days after application, read-out: disease control (inhibition of growth, photometrically)
# In short: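 Compound dissolved in DMSO was combined with potato dextrose broth carrying conidia taken directly from cryogenic storage. Photometric growth inhibition readings were taken after 3–4 days of incubation at 24 °C.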
# [7] = test system: Mycosphaerella Arachidis(Cercospora Arachidicola); experiment: Mycosphaerella arachidis (Cercospora arachidicola) / liquid culture (early leaf spot); format: cell-based; conditions: PDB potato dextrose broth, 24° C., 4-5 days after application, read-out: disease control (inhibition of growth, photometrically)
# In short: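 Growth inhibition was read photometrically 4-5 days post-application, following incubation at 24 °C. Test compounds in DMSO were combined with fungal spores from cryogenic storage suspended in potato dextrose broth.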
# [8] = test system: Mycosphaerella Graminicola(Septoria Tritici); experiment: Mycosphaerella graminicola (Septoria tritici) / liquid culture (Septoria blotch); format: cell-based; conditions: Zymoseptoria tritici, PDB potato dextrose broth, 24° C., 4-5 days after application, read-out: disease control (inhibition of growth, photometrically)
# In short: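 Growth inhibition measured by photometry 4-5 days post-application, at 24 °C, in liquid culture of spores taken straight from cryogenic storage into potato dextrose broth, with test compound supplied in DMSO.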
# [9] = test system: Gaeumannomyces Graminis; experiment: Gaeumannomyces graminis / liquid culture (take-all of cereals); format: cell-based; conditions: PDB potato dextrose broth, 24° C., 4-5 days after application, read-out: disease control (inhibition of growth, photometrically)
# In short: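 Liquid-culture growth assay: compound delivered as DMSO solution, then fungal inoculum in potato dextrose broth added. Photometric read of growth inhibition after 4-5 days at 24° C.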
# [10] = test system: Monographella Nivalis(Microdochium Nivale); experiment: Monographella nivalis (Microdochium nivale) / liquid culture (foot rot cereals); format: cell-based; conditions: PDB potato dextrose broth, 24° C., 4-5 days after application, read-out: disease control (inhibition of growth, photometrically)
# In short: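 Growth inhibition measured photometrically after 4-5 days at 24° C. Test compound in DMSO was combined with nutrient broth (PDB) carrying conidia taken directly from cryogenic storage.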
# [11] = test system: Fusarium Culmorum; experiment: microbe, parasite or virus in culture; format: cell-based; conditions: read-out: disease control (inhibition of growth, photometrically)
# [12] = test system: Thanatephorus Cucumeris(Rhizoctonia Solani); experiment: Thanatephorus cucumeris (Rhizoctonia solani) / liquid culture (foot rot, damping-off); format: cell-based; conditions: PDB potato dextrose broth, 24° C., 3-4 days after application, read-out: disease control (inhibition of growth, photometrically)
# Experimental: 16 Thanatephorus Cucumeris(Rhizoctonia Solani)/Liquid Culture (Foot Rot, Damping-Off) Mycelia fragments of a newly grown liquid culture of the fungus were directly mixed into nutrient broth (PDB potato dextrose broth). After placing a DMSO solution of the test compounds into a 96-well microtiter plate at an application rate of 200 ppm, the nutrient broth containing the fungal material was added. The test plates were incubated at 24° C. and the inhibition of growth was determined photometrically 3-4 days after application.
# [13] = test system: Sclerotinia Sclerotiorum; experiment: Sclerotinia sclerotiorum / liquid culture (cottony rot); format: cell-based; conditions: PDB potato dextrose broth, 24° C., 3-4 days after application, read-out: disease control (inhibition of growth, visually)
# In short: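 Growth inhibition was read by eye 3-4 days post-application at 24° C. Compounds (DMSO solution) were combined with potato dextrose broth seeded with mycelia fragments from a newly grown liquid culture.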
# [14] = test system: Phytophthora Infestans; experiment: whole plant or invertebrate; format: in vivo; conditions: in Solanum lycopersicum, foliar, read-out: disease control
Structure (SMILES),pest or weed control at 200 ppm [1] [%],pest or weed control at 200 ppm [2] [%],pest or weed control at 200 ppm [3] [%],inhibition at 20 ppm [4] [%],inhibition at 20 ppm [5] [%],inhibition at 20 ppm [6] [%],inhibition at 20 ppm [7] [%],inhibition at 20 ppm [8] [%],inhibition at 20 ppm [9] [%],inhibition at 20 ppm [10] [%],inhibition at 20 ppm [11] [%],inhibition at 20 ppm [12] [%],inhibition at 20 ppm [13] [%],pest or weed control at 200 ppm [14] [%],melting point [°C]
OB1OCc2cc(Cl)c(-c3cncc(C(F)(F)F)c3)cc21 [Compound 91],≥ 80,≥ 80,≥ 80,≥ 80,≥ 80,≥ 80,≥ 80,≥ 80,≥ 80,≥ 80,≥ 80,≥ 80,≥ 80,–,–
Cc1ncsc1-c1cc2c(cc1Cl)COB2O [Compound 16],≥ 80,–,–,≥ 80,≥ 80,≥ 80,≥ 80,≥ 80,≥ 80,≥ 80,≥ 80,–,≥ 80,≥ 80,–
"Cc1noc(-c2cc3c(cc2F)COB3O)n1 [Compound 30, 5-(5-fluoro-1-hydroxy-3H-2,1-benzoxaborol-6-yl)-3-methyl-1,2,4-oxadiazole]",–,–,–,≥ 80,≥ 80,≥ 80,≥ 80,≥ 80,≥ 80,≥ 80,–,–,≥ 80,≥ 80,200 to 202
O/N=C/c1ccc(-c2cc3c(cc2F)COB3O)o1 [Compound 27],≥ 80,–,–,≥ 80,–,≥ 80,≥ 80,–,–,≥ 80,–,–,–,≥ 80,200 to 220
COc1c(-c2nnco2)ccc2c1B(O)OC2 [Compound 93],–,–,–,≥ 80,–,≥ 80,≥ 80,–,≥ 80,–,–,–,–,≥ 80,176 to 178
N#Cc1cscc1-c1cc2c(cc1Cl)COB2O [Compound 42],≥ 80,–,≥ 80,≥ 80,–,≥ 80,≥ 80,≥ 80,≥ 80,≥ 80,≥ 80,–,≥ 80,≥ 80,–
OB1OCc2cc(F)c(-c3cccs3)cc21 [Compound 6],≥ 80,≥ 80,–,≥ 80,≥ 80,≥ 80,≥ 80,≥ 80,≥ 80,≥ 80,≥ 80,≥ 80,≥ 80,–,134 to 140
OB1OCc2cc(Cl)c(-c3cccs3)cc21 [Compound 3],≥ 80,≥ 80,≥ 80,≥ 80,≥ 80,≥ 80,≥ 80,≥ 80,≥ 80,≥ 80,≥ 80,≥ 80,≥ 80,–,125 to 135
"OB1OCc2cc(F)c(-c3ccc(Cl)nc3)cc21 [Compound 13, 2-chloro-5-(5-fluoro-1-hydroxy-3H-2,1-benzoxaborol-6-yl)pyridine]",≥ 80,–,–,≥ 80,–,–,–,–,≥ 80,≥ 80,–,–,–,≥ 80,213 to 215
CC1N=C(c2cc3c(cc2Cl)COB3O)S/C1=N/O (stereo not drawn) [Compound 17],–,–,–,≥ 80,≥ 80,≥ 80,≥ 80,≥ 80,≥ 80,≥ 80,≥ 80,–,≥ 80,≥ 80,–
OB1OCc2cc(F)c(-c3nnco3)cc21 [Compound 95],–,–,–,≥ 80,–,≥ 80,≥ 80,–,≥ 80,–,–,–,≥ 80,≥ 80,237 to 239
OB1OCc2cc(Cl)c(-c3ccsc3Cl)cc21 [Compound 88],≥ 80,≥ 80,≥ 80,≥ 80,–,≥ 80,≥ 80,≥ 80,≥ 80,≥ 80,≥ 80,≥ 80,≥ 80,–,–
Cn1cccc1-c1cc2c(cc1Cl)COB2O [Compound 4],≥ 80,≥ 80,≥ 80,≥ 80,–,≥ 80,≥ 80,≥ 80,≥ 80,≥ 80,≥ 80,–,–,–,195 to 202
OB1OCc2cc(F)c(-c3ccsc3Cl)cc21 [Compound 79],≥ 80,≥ 80,≥ 80,≥ 80,–,≥ 80,≥ 80,≥ 80,≥ 80,≥ 80,–,≥ 80,≥ 80,–,–
Cc1csc(-c2cc3c(cc2Cl)COB3O)n1 [Compound 15],≥ 80,–,–,≥ 80,–,≥ 80,≥ 80,≥ 80,≥ 80,≥ 80,≥ 80,≥ 80,≥ 80,≥ 80,–
CC(=O)c1ccc(-c2cc3c(cc2Cl)COB3O)o1 [Compound 39],≥ 80,–,–,≥ 80,–,≥ 80,≥ 80,–,≥ 80,≥ 80,≥ 80,≥ 80,–,≥ 80,–
